Laboratory results reported in paper PMC5474226 (Cancer research, 2017).
Read-outs that look alike come from different tables or passages of the source. One block for each substance: values may come before it.

What was measured:
[1] = target: granzyme B; conditions: tetrapeptide with C-terminus aspartate modified to aldehyde; ref [21],[22]; cited from earlier work
[2] = system: advanced non-small cell lung cancer; conditions: ref [8], cited from earlier work
[3] = target: granzyme B (activated from pro-granzyme B) (UniProt P04187); assay: enzyme inhibition assay
Chain of UniProt P04187 (P04187 21-247): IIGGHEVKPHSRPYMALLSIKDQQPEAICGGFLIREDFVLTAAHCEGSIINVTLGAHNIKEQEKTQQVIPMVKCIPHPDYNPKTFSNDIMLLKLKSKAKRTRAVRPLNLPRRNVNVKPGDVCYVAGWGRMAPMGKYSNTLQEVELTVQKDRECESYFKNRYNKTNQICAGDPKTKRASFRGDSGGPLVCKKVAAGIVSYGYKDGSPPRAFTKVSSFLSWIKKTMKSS

Substance: Ile-Glu-Phe-Asp
Ki [1]: 80 nM

Substance: pembrolizumab
response rate ([2]; patients with >1% positive PD-L1 staining): 18% | response rate ([2]; tumors with greater than 50% positive staining for PD-L1): 30%

Ki [3]: 47 nM
Substance: NOTA–β-Ala–Gly–Gly–Ile–Glu–Phe–Asp–CHO (NOTA-GZP), gallium-labelled (peptide)
